Experiments:
Test in all cases: relative viability (nuclei count vs DMSO), 5 days (fraction); higher = more cells survive
BGJ398 + AZD7762 = compound: CCN1CCN(c2ccc(Nc3cc(N(C)C(=O)Nc4c(Cl)c(OC)cc(OC)c4Cl)ncn3)cc2)CC1 [BGJ398] + NC(=O)Nc1cc(-c2cccc(F)c2)sc1C(=O)N[C@H]1CCCNC1 [AZD7762] (partner 0.2 µM)
Method in brief: (§1)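 Relative viability equals treated-well nuclei counts divided by vehicle-well nuclei counts. Counts came from 4× images of lung cancer cell lines grown in 1536-well plates for 5 days after pin-tool dosing on the day after seeding. Dosing used one drug alone or a fixed anchor-drug dose plus five library-drug doses (not always all listed) in √10 steps, and values are medians of duplicate plates.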

BGJ398 + OSI-027 = compound: CCN1CCN(c2ccc(Nc3cc(N(C)C(=O)Nc4c(Cl)c(OC)cc(OC)c4Cl)ncn3)cc2)CC1 [BGJ398] + COc1cccc2cc(-c3nc([C@H]4CC[C@H](C(=O)O)CC4)n4ncnc(N)c34)[nH]c12 [OSI-027] (partner 0.5 µM)
Method in brief: as §1

[1] = compound: C1=CC2=NC=CN=C2C=C1/C=C/3\C(=O)NC(=O)S3 + CCNC(=O)c1noc(-c2cc(C(C)C)c(O)cc2O)c1-c1ccc(CN2CCOCC2)cc1 [Luminespib] (partner 0.01 µM)
Method in brief: as §1

[2] = compound: C1=CC2=NC=CN=C2C=C1/C=C/3\C(=O)NC(=O)S3 + CS(=O)(=O)N1CCN(Cc2cc3nc(-c4cccc5[nH]ncc45)nc(N4CCOCC4)c3s2)CC1 [Pictilisib] (partner 1 µM)
Method in brief: as §1

Cell Line | relative viability (BGJ398 + AZD7762; first compound 0.01 µM) | relative viability (BGJ398 + AZD7762; first compound 0.1 µM) | relative viability (BGJ398 + AZD7762; first compound 0.3162 µM) | relative viability (BGJ398 + AZD7762; first compound 1 µM) | relative viability (BGJ398 + OSI-027; first compound 0.01 µM) | relative viability (BGJ398 + OSI-027; first compound 0.03162 µM) | relative viability (BGJ398 + OSI-027; first compound 0.1 µM) | relative viability (BGJ398 + OSI-027; first compound 0.3162 µM) | relative viability (BGJ398 + OSI-027; first compound 1 µM) | relative viability ([1]; first compound 0.02 µM) | relative viability ([1]; first compound 0.06325 µM) | relative viability ([1]; first compound 0.2 µM) | relative viability ([1]; first compound 0.6325 µM) | relative viability ([1]; first compound 2 µM) | relative viability ([2]; first compound 0.02 µM) | relative viability ([2]; first compound 0.06325 µM) | relative viability ([2]; first compound 0.2 µM) | relative viability ([2]; first compound 0.6325 µM) | relative viability ([2]; first compound 2 µM) | relative viability (BGJ398 + AZD7762; first compound 0.03162 µM)
NCI-H1648 | 0.873 | 0.759 | 0.55 | 0.387 | 0.245 | 0.292 | 0.246 | 0.26 | 0.235 | – | – | – | – | – | – | – | – | – | – | –
NCI-H1650 | – | – | – | – | 0.487 | – | 0.56 | 0.273 | 0.396 | 0.221 | 0.194 | 0.209 | 0.209 | 0.171 | 0.562 | 0.531 | 0.594 | 0.553 | 0.656 | –
NCI-H1703 | 0.117 | 0.111 | 0.122 | 0.123 | – | – | – | – | – | – | – | – | – | – | 0.241 | 0.318 | 0.187 | 0.243 | 0.232 | 0.136
NCI-H2009 | – | – | – | – | 0.553 | 0.73 | 0.653 | 0.633 | 0.685 | 0.973 | 0.995 | 1.04 | 1.05 | 1.05 | 0.859 | 0.891 | 0.964 | 0.712 | 0.744 | –
NCI-H2023 | – | – | – | – | 0.364 | 0.462 | 0.46 | 0.41 | 0.395 | 0.701 | 0.713 | 0.773 | 0.757 | 0.745 | 0.236 | 0.27 | 0.26 | 0.223 | 0.16 | –
NCI-H2228 | – | – | – | – | 0.525 | 0.535 | 0.67 | 0.501 | 0.717 | 0.157 | 0.132 | 0.152 | 0.156 | 0.137 | 0.384 | 0.36 | 0.441 | 0.274 | 0.22 | –
NCI-H2342 | 0.513 | 0.542 | 0.496 | 0.437 | 0.694 | 0.628 | 0.629 | 0.674 | 0.622 | 0.721 | 0.672 | 0.756 | 0.601 | 0.636 | – | – | – | – | – | 0.565
SK-LU-1 | – | – | – | – | 0.333 | 0.4 | 0.362 | 0.272 | 0.35 | 0.203 | 0.2 | 0.19 | 0.202 | 0.221 | 0.703 | 0.695 | 0.583 | 0.577 | 0.506 | –
SK-MES-1 | – | – | – | – | 0.589 | 0.693 | 0.594 | 0.565 | 0.69 | 0.645 | 0.876 | 0.877 | 0.779 | 0.852 | 0.385 | 0.391 | 0.375 | 0.353 | 0.335 | –
SW 900 | 0.757 | 0.572 | 0.36 | 0.532 | 0.602 | 0.604 | 0.545 | 0.368 | 0.358 | 0.163 | 0.176 | 0.173 | 0.223 | 0.21 | – | – | – | – | – | 0.514
SW 1573 | – | – | – | – | 0.611 | 0.766 | 0.703 | 0.572 | 0.734 | 0.492 | 0.267 | 0.222 | 0.762 | 0.208 | 0.525 | 0.511 | 0.524 | 0.555 | 0.441 | –

— the supplement of paper PMC10307832
